For one compound, tumor growth, tumor volume and tumor development results are on record in patent publication US20240180881A1, “METHODS FOR DECREASING RESISTANCE TO CHEMOTHERAPY” (National Institute of Immunology, priority 2022, published 2024).

SMILES strings stand for the structures.

This assay has as its system HCT116 IC60 CPTR tumors. In words: siRNA-based ablation in xenograft studies. The assay is classed as in vivo, SCID mice. How it is done: To determine whether the three key players (MRP2, BLM and RAD54) were indispensable for reverting chemoresistance in colon cancer, siRNA-based ablation in xenograft studies was carried out using SCID mice. Once the tumor volume reached 50 mm^3, either siControl or siRAD54 or siBLM or siMRP2 were injected at the base of the tumor using TAC6 polymer mediated in vivo delivery. The experiment was stopped after 21 days after which the levels of RAD54, BLM, MRP2 transcripts were analyzed by RT-qPCR to validate the downregulation of the cognate genes (FIG. 14A-14C). […] This is probably because of greater retention of CPT inside the tumors and thereby allowing increased chemotherapeutic potential of the drug (FIG. 7B).

In the case of `CN1CCN(C2=Nc3ccccc3Oc3ccc(Cl)cc32)CC1.O=C(O)CCC(=O)O` [C17, Loxapine succinate], the tumor growth result (siBLM, compound and CPT) is “rescued tumor growth”. Further, the tumor volume entry (siControl, compound and CPT compared to only CPT) is listed as “decreased tumor volume”. Besides, the tumor development result (siMRP2, compound and CPT) was “decreased tumor development”.
